Test results from article PMC3183052, “Immunoprotectivity of HLA-A2 CTL Peptides Derived from Respiratory Syncytial Virus Fusion Protein in HLA-A2 Transgenic Mouse” (PLoS ONE, 2011).

Legend:
[1] = system: splenocytic CD8+ T cells; test: CFSE proliferation of CD8+ T cells after in vitro peptide restimulation; format: cell-based, mouse; conditions: mice immunized s.c. twice with 50 µg peptide in IFA; splenocytes restimulated with 10 µg/mL peptide for 8 days
Description: To screen the immunodominance of epitopic peptide in the induction of RSV-F specific Th1/Th2 expression, HLA-A*0201 transgenic C57BL/6 mice were anesthetized with isoflurane and immunized with 1×10^7 pfu/50 µL of rAd-F0 or rAd-LacZ or 1×10^4 live RSV B1 via the intranasal (i.n.) route. Twenty days later, the mice were given booster immunization i.n. with the same dose. After 10 days of boost, mice were sacrificed and splenocytes were isolated for the cytokine ELISPOT assay. […] Mice body weight was monitored daily.
The splenocytes were isolated, labeled with 5-(6)-carboxyfluorescein diacetate succinimidyl ester (CFSE) (Sigma-Aldrich) and stimulated in vitro with 10 µg/mL of the synthetic peptides for 4 or 8 days. Proliferation of splenocytic CD4^+ and CD8^+ T cells was analyzed by flow cytometry (BD FACSCalibur) using PE-Cy5-labeled specific antibody against CD4 (eBioscience) or CD8 (eBioscience), respectively. Cell division index (CDI), a ratio of CFSE-diluted CD4^+ or CD8^+ T cells stimulated by peptide to CFSE-diluted unstimulated CD4^+ or CD8^+ T cells, was calculated as shown below; [drawing 1] […]
Figure 2 Epitope-specific CD4^+ and CD8^+ T-cell activation in peptide-immunized HLA-A*0201 transgenic mice. […] Proliferation of CD4^+ (A) or CD8^+ (B) lymphocytes in response to the different CD8 epitopes was analyzed by flow cytometry using anti-CD4 or CD8 antibodies conjugated with PE-Cy5. […]

[2] = system: splenocytes from HLA-A*0201 transgenic C57BL/6 mice; test: IL-2 ELISPOT of splenocytes restimulated with peptide; format: cell-based, mouse
How it was run: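 HLA-A*0201 transgenic C57BL/6 mice primed and boosted intranasally 20 days apart with 1×10^7 pfu rAd-F0 or 1×10^4 live RSV B1; splenocytes taken 10 days post-boost. Splenocytes restimulated 48 h at 37°C with 2 µg individual RSV F 9-mer peptides; spots counted, expressed per 5×10^5 splenocytes.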

Sequence: YMLTNSELL [peptide 14, HLA-A*0201-restricted 9-mer synthetic peptide from F protein of RSV-B1 strain]
- proliferation of CD8+ T cells (cell division index) [1]: ~3 fold
- IL-2 ELISPOT, RSV ([2]; splenocytes of HLA-Tg B6 mice primed and boosted i.n. with 10^4 pfu RSV-B1, restimulated with 2 µg peptide, representative of two experiments, five mice per group): 34.5 cytokine-secreting cells per 5×10^5 splenocytes
- IL-2 ELISPOT, rAd-F0 ([2]; splenocytes of HLA-Tg B6 mice primed and boosted i.n. with 10^7 pfu rAd-F0, restimulated with 2 µg peptide, representative of two experiments, five mice per group): 200 cytokine-secreting cells per 5×10^5 splenocytes
- IL-2 level in restimulated splenocytes (ELISPOT, text grading) ([2]; splenocytes of rAd-F0- or RSV B1-primed and boosted HLA-Tg B6 mice, high = over 100 spots, moderate = over 50 spots): over 100 spots
